# Experiments:
# [1] = Absorbance at 620 nm and pH of solutions over time after stirring (Experimental Example 2); assay type: physicochemical; details: N=4; for pH: average; for absorbance at 620 nm: mean±S.E.
# Protocol: The absorbance at wavelength 620 nm [OD(620 nm)] and pH of 0.4% dibucaine solution were determined using UV-visible recording spectrophotometer (UV-2100, Shimadzu Corporation). The solution was stirred, and OD (620 nm) and pH were determined at 5 min, 24 hr, 48 hr and 72 hr later.
# OD (620 nm) and pH of the inclusion compound solution were determined in the same manner as above. The solution was stirred, and OD (620 nm) and pH were determined.
# In the same manner as above, OD (620 nm) and pH of 1.0% tetracaine solution and an inclusion compound solution prepared by adding hydroxypropyl-β-cyclodextrin having an equimolar concentration to 1.0% tetracaine solution were determined. The solutions were stirred, and OD (620 nm) and pH were determined.
# In the same manner as above, OD (620 nm) and pH of 0.5% bupivacaine solution and an inclusion compound solution prepared by adding α-cyclodextrin having an equimolar concentration to 0.5% bupivacaine solution were determined. The solutions were stirred, and OD (620 nm) and pH were determined.
# The solutions were stirred, and OD (620 nm) and pH were determined.
# [2] = Turbidity and clearness of local anesthetic solutions from absorbance at 620 nm (Experimental Example 1); assay type: physicochemical; details: for OD (620 nm): absorbance at wavelength of 620 nm, CD added at equimolar concentration, pH as in label; for clearness (%) / turbidity (%): calculated from absorbance at 620 nm
# Protocol: The turbidity and clearness of each inclusion compound solution were calculated from the absorbances thus obtained. […] In the same manner as above, OD (620 nm) was determined with respect to the obtained inclusion compound solution of each local anesthetic in cyclodextrin or a derivative thereof, and solutions of each local anesthetic. The turbidity and clearness of each inclusion compound solution were calculated from the absorbances thus obtained.
# [3] = test system: abdominal giant nerve bundle of crayfish; assay: Anesthetic concentration versus action potential disappearance and recovery time (Experimental Example 7); assay type: cell-based, crayfish (Procambarus clarkii)
# Source text: A local anesthetic effect is known to be stronger in alkaline range where pH value is greater.
# In addition, the relationship between dibucaine concentration and neuroaction potential recovery time was examined at pH 7.4.
# in vivo = details: mouse, sc, 40 mg/kg
# Protocol: (§1) While local anesthetics are known to show inhibitory action on the central nerve cells at high concentrations, they show stimulating action at low concentrations. […] That is, 0.5 %dibucaine dissolved in physiological saline was subcutaneously injected into the back of 11 mice by 0.3 ml (40 mg/kg body weight), which were compared with 11 mice that underwent subcutaneous injection of a solution containing 0.5% dibucaine and α-cyclodextrin having an equimolar concentration, by 0.3 ml (40 mg/kg body weight).
# mice = assay: in vivo; details: mouse, sc, 40 mg/kg
# Protocol: as §1
Structure (SMILES),pH ([1]; 5 min later),absorbance at 620 nm ([1]; 5 min later),pH ([1]; 24 hr later),absorbance at 620 nm ([1]; 24 hr later),pH ([1]; 48 hr later),absorbance at 620 nm ([1]; 48 hr later),pH ([1]; initial),absorbance at 620 nm ([1]; initial),OD (620 nm) [2],clearness (%) [2],turbidity (%) [2],pH ([1]; 72 hr later),absorbance at 620 nm ([1]; 72 hr later),"action potential disappearance time (expression of anesthetic action) ([3]; 0.4% lidocaine, pH 7.5)","action potential disappearance time (expression of anesthetic action) ([3]; 2% lidocaine, pH 6.5)",mortality (in vivo),time to death from the injection (mice),dibucaine concentration at which action potential disappeared and recovered ([3]; pH 7.4)
CCCCN1CCCCC1C(=O)Nc1c(C)cccc1C (stereo not shown) [bupivacaine],7.20,0.087±0.015,6.89,0.659±0.084,6.77,0.247±0.061,5.44,0.000,2.108,0%,100%,–,–,–,–,–,–,–
CCN(CC)CC(=O)Nc1c(C)cccc1C [lidocaine],7.09,1.045±0.242,7.05,0.717±0.152,7.10,0.382±0.044,4.59,0.006,–,–,–,7.12,0.595±0.086,2 min,80 min,–,–,–
CCCCOc1cc(C(=O)NCCN(CC)CC)c2ccccc2n1 [dibucaine],6.85,1.528±0.087,6.76,1.456±0.079,6.73,1.385±0.042,6.19,0.000,2.015,0%,100%,6.75,1.412±0.054,–,–,91%,about 20 min,0.008%-0.05%
CCCCNc1ccc(C(=O)OCCN(C)C)cc1 [tetracaine],7.12,0.517±0.024,7.04,0.411±0.024,7.05,0.386±0.015,5.49,0.000,2.732,0%,100%,7.05,0.301±0.025,–,–,–,–,–

# — patent EP0838225A2, “Aqueous local anesthetic solution” (Hiji, Yasutake, priority 1996, dated 1998)
